# From ChEMBL document CHEMBL5137073, “Optimization and Mechanistic Investigations of Novel Allosteric Activators of PKG1α” (J Med Chem, 2022)
# Target: T1, cGMP-dependent protein kinase 1 (Homo sapiens, UniProt Q13976)
# T1 sequence (Q13976 whole entry): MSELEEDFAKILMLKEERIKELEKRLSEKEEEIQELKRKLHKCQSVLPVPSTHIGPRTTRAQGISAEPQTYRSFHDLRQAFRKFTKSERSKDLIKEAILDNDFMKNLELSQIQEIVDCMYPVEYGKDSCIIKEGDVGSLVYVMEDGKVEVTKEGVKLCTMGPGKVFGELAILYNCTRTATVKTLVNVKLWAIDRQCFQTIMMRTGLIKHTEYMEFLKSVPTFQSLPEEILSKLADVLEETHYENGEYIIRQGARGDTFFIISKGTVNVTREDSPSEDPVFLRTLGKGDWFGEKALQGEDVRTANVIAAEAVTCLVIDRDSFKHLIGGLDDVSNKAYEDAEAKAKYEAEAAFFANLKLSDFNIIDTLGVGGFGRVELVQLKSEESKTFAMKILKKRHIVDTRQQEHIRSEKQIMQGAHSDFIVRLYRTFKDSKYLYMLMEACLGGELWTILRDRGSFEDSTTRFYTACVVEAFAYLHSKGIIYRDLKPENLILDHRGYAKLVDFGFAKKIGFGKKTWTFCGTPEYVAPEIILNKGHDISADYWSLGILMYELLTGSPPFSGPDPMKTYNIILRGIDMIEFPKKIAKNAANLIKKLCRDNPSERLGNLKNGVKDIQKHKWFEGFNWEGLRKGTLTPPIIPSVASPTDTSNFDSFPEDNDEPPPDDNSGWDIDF
# Assay: Activation of basal state recombinant PKG1alpha (unknown origin) using Glass-tide peptide substrate incubated for 30 mins followed by ATP addition and measured after 2 hr by ADP-GLO Max Assay
# Settings: not given
row,EC50,SMILES
1,> 200 µM,OC[C@@H](O[C@H]1CCCN(Cc2ncc[nH]2)[C@H]1c1ccccc1)c1cc(Cl)cc(Cl)c1
2,77 µM,O=C(O)c1ccc(CN2CCC[C@H](O[C@H](CO)c3cc(Cl)cc(Cl)c3)[C@@H]2c2ccccc2)cc1
3,> 200 µM,Cc1cc(C(=O)O)ccc1C(=O)N1CCC[C@H](O[C@H](CO)c2cc(Cl)cc(Cl)c2)[C@@H]1c1ccccc1
4,> 200 µM,O=C(O)C12CC(CN3CCC[C@H](O[C@H](CO)c4cc(Cl)cc(Cl)c4)[C@@H]3c3ccccc3)(C1)C2
5,> 200 µM,Cc1cc(C(=O)O)ccc1CN1CCC[C@@]2(C[C@@H](c3ccccc3)CO2)[C@@H]1c1ccccc1
6,> 200 µM,Cc1cc(C(=O)O)ccc1CN1C(=O)CC[C@H](OCc2cc(Cl)cc(Cl)c2)[C@@H]1c1ccccc1
7,> 200 µM,Cc1cc(C(=O)O)ccc1CN1CCC[C@H](O[C@H](CO)c2ccnc(Cl)c2)[C@@H]1c1ccccc1
8,130 µM,Cc1cc(C(=O)O)ccc1CN1C(C)CC[C@H](O[C@H](CO)c2cc(Cl)cc(Cl)c2)[C@@H]1c1ccccc1 (stereo not given in full)
9,> 200 µM,CC(=O)NS(=O)(=O)c1ccc(CN2CCC[C@H](O[C@H](CO)c3cc(Cl)cc(Cl)c3)[C@@H]2c2ccccc2)cc1
10,185 µM,Cc1cc(C(=O)O)ccc1CN1CC[C@H](OC(CO)c2cc(Cl)cc(Cl)c2)[C@@H]1c1ccccc1 (stereo not given in full)
11,> 200 µM,COc1cccc([C@@H](CO)O[C@H]2CCCN(Cc3ccc(C(=O)O)cc3C)[C@H]2c2ccccc2)c1
12,> 200 µM,Cc1cc(C(=O)O)ccc1CN1CCC[C@H](O[C@H](CO)c2ccccc2)[C@@H]1c1ccccc1
13,> 200 µM,Cc1cc(C(=O)O)ccc1CN1CCC[C@H](O[C@H](CO)c2cc(Cl)cc(Cl)c2)[C@@H]1C1CCCCC1
14,121 µM,Cc1cc(C(=O)O)ccc1CN1CCC[C@H](OC(c2cc(Cl)cc(Cl)c2)C(C)(C)O)[C@@H]1c1ccccc1 (stereo not given in full)

# System: not listed separately
# Assay: Clearance in Wistar Han male rat plasma at 0.05 mg/kg, iv and measured upto 8 hrs post dose by LC-MS/MS analysis
# Format: ADME, organism-based
# Settings: not given
row,clearance,SMILES
1,8.1 mL/min/kg,O=C(O)c1ccc(CN2CCC[C@H](O[C@H](CO)c3cc(Cl)cc(Cl)c3)[C@@H]2c2ccccc2)c([N+](=O)[O-])c1
2,4.4 mL/min/kg,Nc1cc(C(=O)O)ccc1CN1CCC[C@H](O[C@H](CO)c2cc(Cl)cc(Cl)c2)[C@@H]1c1ccccc1

# System: not listed separately
# Assay: Oral bioavailability in Wistar Han male rat plasma at 5 mg/kg and measured upto 8 hrs by LC-MS/MS analysis
# Format: ADME, organism-based
# Settings: not given
row,bioavailability,SMILES
1,62%,Cc1cc(C(=O)O)ccc1CN1CCC[C@H](O[C@H](CO)c2cc(Cl)cc(Cl)c2)[C@@H]1c1ccccc1

# System: not listed separately
# Assay: Protein binding in Wistar Han male rat plasma at 1 mg/kg, iv or 5 mg/kg, po and measured upto 8 hrs post dose by LC-MS/MS analysis
# Format: ADME, organism-based
# Settings: read-out: PPB
row,fraction unbound at 8 h,SMILES
1,0.001,Cc1cc(C(=O)O)ccc1CN1CCC[C@H](O[C@H](CO)c2cc(Cl)cc(Cl)c2)[C@@H]1c1ccccc1

# Target: T1, cGMP-dependent protein kinase 1
# Settings: not given
row,EC50,SMILES
1,> 164 µM,OC[C@@H](O[C@H]1CCCN(Cc2ncc[nH]2)[C@H]1c1ccccc1)c1cc(Cl)cc(Cl)c1

# System: not listed separately
# Assay: Solubility of compound at pH 7
# Format: physicochemical
# Settings: buffer
row,solubility,SMILES
1,120 µM,OC[C@@H](O[C@H]1CCCN(Cc2ncc[nH]2)[C@H]1c1ccccc1)c1cc(Cl)cc(Cl)c1
2,85 µM,O=C(O)c1ccc(CN2CCC[C@H](O[C@H](CO)c3cc(Cl)cc(Cl)c3)[C@@H]2c2ccccc2)cc1
3,157 µM,Cc1cc(C(=O)O)ccc1CN1CCC[C@H](O[C@H](CO)c2cc(Cl)cc(Cl)c2)[C@@H]1c1ccccc1
4,110 µM,O=C(O)c1ccc(CN2CCC[C@H](O[C@H](CO)c3cc(Cl)cc(Cl)c3)[C@@H]2c2ccccc2)c([N+](=O)[O-])c1
5,78 µM,Nc1cc(C(=O)O)ccc1CN1CCC[C@H](O[C@H](CO)c2cc(Cl)cc(Cl)c2)[C@@H]1c1ccccc1

# System: not listed separately
# Assay: Volume of distribution in Wistar Han male rat plasma at 0.05 mg/kg, iv and measured upto 8 hrs post dose by LC-MS/MS analysis
# Format: ADME, organism-based
# Settings: not given
row,Vd,SMILES
1,0.45 L/kg,O=C(O)c1ccc(CN2CCC[C@H](O[C@H](CO)c3cc(Cl)cc(Cl)c3)[C@@H]2c2ccccc2)c([N+](=O)[O-])c1
2,0.5 L/kg,Nc1cc(C(=O)O)ccc1CN1CCC[C@H](O[C@H](CO)c2cc(Cl)cc(Cl)c2)[C@@H]1c1ccccc1

# System: not listed separately
# Assay: MRT in Wistar Han male rat plasma at 1 mg/kg, iv and measured upto 8 hrs post dose by LC-MS/MS analysis
# Format: ADME, organism-based
# Settings: not given
row,MRT,SMILES
1,2.3 h,Cc1cc(C(=O)O)ccc1CN1CCC[C@H](O[C@H](CO)c2cc(Cl)cc(Cl)c2)[C@@H]1c1ccccc1

# Target: T1, cGMP-dependent protein kinase 1
# Assay: Activation of cGMP induced partially activated state recombinant PKG1alpha (unknown origin) using Glass-tide peptide substrate incubated for 30 mins followed by ATP addition and measured after 2 hr in presence of cGMP by ADP-GLO Max Assay
# Settings: not given
row,EC50,SMILES
1,47 µM,OC[C@@H](O[C@H]1CCCN(Cc2ncc[nH]2)[C@H]1c1ccccc1)c1cc(Cl)cc(Cl)c1
2,> 200 µM,Cc1cc(C(=O)O)ccc1C(=O)N1CCC[C@H](O[C@H](CO)c2cc(Cl)cc(Cl)c2)[C@@H]1c1ccccc1
3,12 µM,O=C(O)C12CC(CN3CCC[C@H](O[C@H](CO)c4cc(Cl)cc(Cl)c4)[C@@H]3c3ccccc3)(C1)C2
4,43 µM,Cc1cc(C(=O)O)ccc1CN1CCC[C@@]2(C[C@@H](c3ccccc3)CO2)[C@@H]1c1ccccc1
5,169 µM,Cc1cc(C(=O)O)ccc1CN1C(=O)CC[C@H](OCc2cc(Cl)cc(Cl)c2)[C@@H]1c1ccccc1
6,50 µM,Cc1cc(C(=O)O)ccc1CN1CCC[C@H](O[C@H](CO)c2ccnc(Cl)c2)[C@@H]1c1ccccc1
7,36 µM,Cc1cc(C(=O)O)ccc1CN1C(C)CC[C@H](O[C@H](CO)c2cc(Cl)cc(Cl)c2)[C@@H]1c1ccccc1 (stereo not given in full)
8,14 µM,CC(=O)NS(=O)(=O)c1ccc(CN2CCC[C@H](O[C@H](CO)c3cc(Cl)cc(Cl)c3)[C@@H]2c2ccccc2)cc1
9,133 µM,Cc1cc(C(=O)O)ccc1CN1CC[C@H](OC(CO)c2cc(Cl)cc(Cl)c2)[C@@H]1c1ccccc1 (stereo not given in full)
10,18 µM,Cc1cc(C(=O)O)ccc1CN1CCC[C@H](O[C@H](CO)c2cc(Cl)cc(Cl)c2)[C@@H]1c1ccc(F)cc1
11,12 µM,Cc1cc(C(=O)O)ccc1CN1CCC[C@H](O[C@H](CO)c2cc(Cl)cc(Cl)c2)[C@@H]1c1cccc(F)c1
12,81 µM,COc1cccc([C@@H](CO)O[C@H]2CCCN(Cc3ccc(C(=O)O)cc3C)[C@H]2c2ccccc2)c1
13,25 µM,Cc1cc(C(=O)O)ccc1CN1CCC[C@H](O[C@H](CO)c2ccccc2)[C@@H]1c1ccccc1
14,18 µM,Cc1cc(C(=O)O)ccc1C(C)N1CCC[C@H](O[C@H](CO)c2cc(Cl)cc(Cl)c2)[C@@H]1c1ccccc1 (stereo not given in full)
15,65 µM,Cc1cc(C(=O)O)ccc1CN1CCC[C@H](O[C@H](CO)c2cc(Cl)cc(Cl)c2)[C@@H]1C1CCCCC1
16,17 µM,Cc1cc(C(=O)O)ccc1CN1CCC[C@H](OC(c2cc(Cl)cc(Cl)c2)C(C)(C)O)[C@@H]1c1ccccc1 (stereo not given in full)
17,47 µM,Cc1cc(C(=O)O)ccc1CN1CCC[C@H](O[C@H](CO)c2cc(Cl)cc(Cl)c2)[C@@H]1c1cccnc1 (racemic)

# System: not listed separately
# Assay: Solubility of compound in FaSSIF
# Format: physicochemical
# Settings: not given
row,solubility,SMILES
1,36 µM,Cc1cc(C(=O)O)ccc1CN1CCC[C@H](O[C@H](CO)c2cc(Cl)cc(Cl)c2)[C@@H]1c1ccccc1
2,112 µM,O=C(O)c1ccc(CN2CCC[C@H](O[C@H](CO)c3cc(Cl)cc(Cl)c3)[C@@H]2c2ccccc2)c([N+](=O)[O-])c1
3,137 µM,Nc1cc(C(=O)O)ccc1CN1CCC[C@H](O[C@H](CO)c2cc(Cl)cc(Cl)c2)[C@@H]1c1ccccc1

# System: not listed separately
# Assay: Clearance in Wistar Han male rat plasma at 1 mg/kg, iv or 5 mg/kg, po and measured upto 8 hrs post dose by LC-MS/MS analysis
# Format: ADME, organism-based
# Settings: not given
row,clearance,SMILES
1,2.5 mL/min/kg,Cc1cc(C(=O)O)ccc1CN1CCC[C@H](O[C@H](CO)c2cc(Cl)cc(Cl)c2)[C@@H]1c1ccccc1

# System: not listed separately
# Assay: Protein binding in Wistar Han male rat plasma at 0.05 mg/kg, iv and measured upto 8 hrs post dose by LC-MS/MS analysis
# Format: ADME, organism-based
# Settings: read-out: PPB (converted)
row,fraction unbound at 8 h,SMILES
1,< 0.001,O=C(O)c1ccc(CN2CCC[C@H](O[C@H](CO)c3cc(Cl)cc(Cl)c3)[C@@H]2c2ccccc2)c([N+](=O)[O-])c1
2,0.002,Nc1cc(C(=O)O)ccc1CN1CCC[C@H](O[C@H](CO)c2cc(Cl)cc(Cl)c2)[C@@H]1c1ccccc1

# System: not listed separately
# Assay: Apparent permeability in dog MDCK-II cells
# Format: ADME, cell-based, Canis lupus familiaris
# Settings: not given
row,Papp,SMILES
1,2 ×10⁻⁶ cm/s,OC[C@@H](O[C@H]1CCCN(Cc2ncc[nH]2)[C@H]1c1ccccc1)c1cc(Cl)cc(Cl)c1
2,22 ×10⁻⁶ cm/s,Cc1cc(C(=O)O)ccc1CN1CCC[C@H](O[C@H](CO)c2cc(Cl)cc(Cl)c2)[C@@H]1c1ccccc1
3,10 ×10⁻⁶ cm/s,O=C(O)c1ccc(CN2CCC[C@H](O[C@H](CO)c3cc(Cl)cc(Cl)c3)[C@@H]2c2ccccc2)c([N+](=O)[O-])c1
4,21 ×10⁻⁶ cm/s,Nc1cc(C(=O)O)ccc1CN1CCC[C@H](O[C@H](CO)c2cc(Cl)cc(Cl)c2)[C@@H]1c1ccccc1

# System: not listed separately
# Assay: Solubility of compound at pH 2
# Format: physicochemical
# Settings: buffer
row,solubility,SMILES
1,196 µM,Cc1cc(C(=O)O)ccc1CN1CCC[C@H](O[C@H](CO)c2cc(Cl)cc(Cl)c2)[C@@H]1c1ccccc1
2,172 µM,O=C(O)c1ccc(CN2CCC[C@H](O[C@H](CO)c3cc(Cl)cc(Cl)c3)[C@@H]2c2ccccc2)c([N+](=O)[O-])c1
3,126 µM,Nc1cc(C(=O)O)ccc1CN1CCC[C@H](O[C@H](CO)c2cc(Cl)cc(Cl)c2)[C@@H]1c1ccccc1

# System: not listed separately
# Assay: Volume of distribution in Wistar Han male rat plasma at 1 mg/kg, iv or 5 mg/kg, po and measured upto 8 hrs post dose by LC-MS/MS analysis
# Format: ADME, organism-based
# Settings: not given
row,Vd,SMILES
1,0.33 L/kg,Cc1cc(C(=O)O)ccc1CN1CCC[C@H](O[C@H](CO)c2cc(Cl)cc(Cl)c2)[C@@H]1c1ccccc1

# System: not listed separately
# Assay: MRT in Wistar Han male rat plasma at 0.05 mg/kg, iv and measured upto 8 hrs post dose by LC-MS/MS analysis
# Format: ADME, organism-based
# Settings: not given
row,MRT,SMILES
1,0.9 h,O=C(O)c1ccc(CN2CCC[C@H](O[C@H](CO)c3cc(Cl)cc(Cl)c3)[C@@H]2c2ccccc2)c([N+](=O)[O-])c1
2,1.9 h,Nc1cc(C(=O)O)ccc1CN1CCC[C@H](O[C@H](CO)c2cc(Cl)cc(Cl)c2)[C@@H]1c1ccccc1
